“Also recorded” adds a separate entry of the source. Where a name gives a salt, the structure may show the parent alone.
Experiments:
Format in all cases: physicochemical
[1] = Bupivacaine hydrochloride release from in situ PLGA implant with and without magnesium carbonate filler; conditions: FIG. 21B
Protocol: 100.2 mg PDLG 5002 polymer is dissolved in 1.0 ml DMSO. 10 microliters of methylene blue stock solution (10 mg methylene blue in 2 ml DMSO) is added to the polymer solution as a colorant. Infusion solutions are prepared using the following method: 15.2 mg bupivacaine hydrochloride and 0.50 ml polymer solution are mixed until drug is completely dissolved. 50 mg magnesium carbonate powder (fine powder sieved to collect fraction below 300 microns in size) is added as a biocompatible and biodegradable filler in the drug solution and the mixture is vigorously vortexed for 5 minutes. The magnesium carbonate suspension is infused/tattooed using an oscillating needle in 1 cm square area of sheep skin tissue. Excess solution from the tattooed surface is wiped off. The light blue tattoo with magnesium particles is clearly seen the by unaided naked eye.
Similarly, a polymer solution without magnesium carbonate is prepared and infused/tattooed in the sheep skin tissue as above. The infused tissue sample is cut and used in controlled release experiment.
The cut samples are placed in 3 mL of PBS (pH 7.4). The drug eluted PBS is collected at several time points. Fresh PBS is added to replace the eluted PBS solution. The collected PBS is analyzed using a UV spectrophotometer to determine the drug concentration.

[2] = Rifampin release from encapsulated microspheres in microimplant array in sheep skin tissue; conditions: PLGA microspheres in glycerol, 33 MP array, PBS 37 degree C., FIG. 14
Protocol: Rifampin containing red/yellow microspheres are prepared using spray drying method or prepared according to Example 3. Microspheres are prepared using PLGA polymer (PDLG 5002 from Purac) polymer with 20 percent rifampin loading relative to the polymer plus drug weight. Control PLGA microspheres without rifampin are prepared under identical spry drying conditions. 4.9 mg of rifampin encapsulated microspheres are suspended in 0.25 ml glycerol. One/two drops of the suspension are added on the 2 by 2 cm glutaraldehyde fixed sheep tissue. The 33 MP microarray needles are pressed on the tissue via rifampin suspension to create 3 by 3 micro array cavities and infuse the cavities with the rifampin microspheres. The procedure is repeated 9 times on the same tissue at different locations to create 135 micro cavities loaded with rifampin microspheres. The excess suspension is wiped of using tissue paper. No loosely adherent microspheres in the tissue are noticed. The glycerol in the suspension is dissipated in the tissue leaving behind the microspheres in the cavities. […] The rifampin treated tissue and control tissue are incubated at 37 degree C. in 3 ml PBS and rifampin in treated and control samples is monitored at various time points. Rifampin concentration in the eluted samples is analyzed using UV-VIS spectrophotometer (wavelength 474 nm).

[3] = Bupivacaine base release from PLGA microimplants formed with oscillating needle in bovine pericardium; conditions: PDLG 5002 in DMSO infused by oscillating needle, PBS 37 degree C.
Protocol: Oscillating needle such as tattoo needle may be used to create cavities in the tissue or skin. A commercial tattoo machine as described in the related application (U.S. Pat. No. 9,072,678, cited herein for reference only) is used. The 500-1000 micron size tattoo needle is used and the oscillation frequency was 10 to 12000 oscillations per minute. About 1 square centimeter area was treated with the tattoo needle for 1 minute. The pores created by the tattoo machine repeated needle insertion were used to fill the injectable composition such PLGA solutions with the drug as described before. Alternatively, polymer solution is first applied on the tissue surface to form a solution layer and then the tattoo needle is used to create holes through the solution. The needle goes in and out of the tissue surface and carries the solution with it inside the cavity created. The deposited solution inside the cavity is precipitated by the tissue fluids and the precipitated polymer releases the drug in a sustained manner. Additional information about tattoo based methods can be found on related applications cited herein for reference only. […] The concentration of bupivacaine in the eluted samples is monitored using UV spectrophotometer. […]

SMILES: CCCCN1CCCCC1C(=O)Nc1c(C)cccc1C (centres unmarked) [bupivacaine hydrochloride]
- duration of release of bupivacaine hydrochloride ([1]; PLGA array implant with magnesium carbonate filler, hydrochloride): several days; also recorded: much longer sustained release
- duration of release of bupivacaine hydrochloride ([1]; PLGA array implant without magnesium carbonate): one to two days

SMILES: CO[C@H]1/C=C/O[C@@]2(C)Oc3c(C)c(O)c4c(O)c(c(/C=N/N5CCN(C)CC5)c(O)c4c3C2=O)NC(=O)/C(C)=C\C=C\[C@H](C)[C@H](O)[C@@H](C)[C@@H](O)[C@@H](C)[C@H](OC(C)=O)[C@@H]1C [rifampin]
- release of rifampin from microspheres in microimplant array [2]: sustained release

SMILES: CCCCN1CCCCC1C(=O)Nc1c(C)cccc1C (centres unmarked) [bupivacaine base, bupivacaine]
- sustained release of bupivacaine base from in situ formed implant ([3]; FIG. 13): several days
- sustained release of bupivacaine base from in situ formed implant ([3]; FIG. 13, listed as bupivacaine): released in a sustained manner; also recorded: few days
